Patent US4056625A, “Pesticidal compositions containing benzodioxole derivatives and methods of combating pests” (priority 1972, dated 1977)
Converted amounts (≈) assume the structure as drawn.

Key:
[1] = tested on: adult female yellow fever mosquitos (Aedes aegypti); assay: Yellow fever mosquitos in coated glass tubes (Examples 61-64); type: in vivo; settings: 3 mg of active ingredient per square foot, after 24 hours
Protocol: Acetone solutions of the compounds
were applied to the inside walls of glass tubes 9 cm high by 4.5 cm diameter so that after the acetone had evaporated a coating equivalent to 3 mg of active ingredient per square foot remained. Batches of adult female yellow fever mosquitos (Aedes aegypti) were then caged in the tubes.

[2] = tested on: first stage larvae of the cattle tick, Boophilus microplus; assay: Cattle tick larvae in treated filter paper packets (Example 65); type: in vivo; settings: 30 parts per million, 25° C, 24 hours
Protocol: Filter papers, diameter 9 cm., were treated with 1 ml. of acetone solutions containing 30 parts per million of 2,2-dimethyl-1,3-benzodioxol-4-yl N-methylcarbamate or 7-chloro-2,2-dimethyl-1,3-benzodioxol-4-yl N-methylcarbamate. When they had dried, they were folded into quadrant shaped packets, infested with 20 first stage larvae of the cattle tick, Boophilus microplus, closed with a metal clip and kept at 25° C for 24 hours.

[3] = tested on: 2nd stage nymph of the German cockroach (Blattella germanica); assay: LC50 against German cockroach nymphs in treated glass tubes (Example 69); type: in vivo; settings: for LC50 value: 2nd stage nymph German cockroach, 48 hours, 0-6 scale
Protocol: Compounds 2 and 4 and also 2,2-dimethyl-1,3- benzodioxol-4-yl N-methylcarbamate(compound 5) and 2,2-dimethyl-1,3-benzodioxol-4-yl N-acetyl-N-methylcarbamate (compound 6) were tested for activity against the 2nd stage nymph of the German cockroach (Blattella germanica), of the order Orthoptera, by treating the walls of glass tubes (9.0 cm high × 4.5 cm diameter) with acetone solutions of the compounds and after the acetone had evaporated caging the insects in the tubes for 48 hours. The highest dosage rate employed was 50 mg/ft^2 (532 mg/m^2).
(§1) If complete kill was obtained at the highest dosage rate, the test was repeated using a logarithmically reducing dose regime until less than 50% mortality was recorded. The LC50 was then calculated from the line of best fit from the data plotted on log/provit analysis paper.
The LC50 values are abbreviated on a 0-6 scale where

[4] = tested on: adult female houseflies (Musca domestica); assay: LC50 against adult female houseflies on filter papers (Example 70); type: in vivo; settings: for LC50 value: adult female houseflies, 24 hours, 0-6 scale (mg/ft^2); for activity against houseflies (in words): compared with compound 5
Protocol: as §1
(§2) Similarly LC50 values were obtained against various pests as described in Examples 70-73 where, however, the LC50 values are abbreviated on a 0-6 scale where
LC50 values were obtained for each of Compounds 1, 2, 3, 4, 5 and 6 against adult female houseflies (Musca domestica), of the order Diptera. The tests were carried out by adding acetone solutions of the compounds to 9 cm diameter filter papers in the base of 9 cm diameter crystallising dishes, placing the houseflies in the dishes after the acetone had evaporated, closing the dishes with Petri dish lids and counting the mortality after 24 hours. The highest dosage rate employed was 1000 mg/ft^2 (10.65 g/m^2).

[5] = tested on: larvae of the sheep maggot fly (Lucilia sericata); assay: LC50 against sheep maggot fly larvae on dental rolls (Example 71); type: in vivo; settings: for LC50: Lucilia sericata, 24 h, read-out: LC50 value; for activity against sheep maggot fly (in words): compared with compound 5
Protocol: as §1, §2
Similarly, LC50 values were obtained for each of Compounds 1, 2, 3, 4, 5 and 6 against larvae of the sheep maggot fly (Lucilia sericata), of the order Diptera. The tests were carried out by placing newly hatched larvae on dental rolls contained in glass vials and soaked with 1 ml of blood serum containing the compound. The mortality was assessed after 24 hours. The highest dosage rate employed was 1000 ppm.

[6] = tested on: larvae of the cattle tick (Boophilus microplus); assay: LC50 against cattle tick larvae (Example 72); type: in vivo; settings: Rhipicephalus microplus, 24 hours, 0-6 scale (ppm)
Protocol: as §1, §2
Similarly, LC50 values were obtained for each of Compounds 2 and 4 against larvae of the cattle tick (Boophilus microplus), of the order Acarina. The tests were carried out evaporating 1 ml of an acetone solution of the compound on 9 cm diameter filter papers, folding the papers twice in half after drying to give quadrant shaped packets and sealing the tick larvae therein for 24 hours by means of a paper clip. The highest dosage rate employed was 1000 ppm.

[7] = tested on: adult red spider mites (Tetranychus telarius); assay: LC50 against adult red spider mites on sprayed French beans (Example 73); type: in vivo; settings: 48 h, read-out: LC50 value
Protocol: as §1, §2
Similarly, LC50 values were obtained for each of Compounds 1, 2, 4, 5 and 6 against adult red spider mites (Tetranychus telarius), of the order Acarina. The tests were carried out by spraying infected French beans with a 50% acetone water solution of the compound, containing 500 ppm of Lissapol NX as a wetting agent, and recording the mortality after 48 hours. The highest dosage rate employed was 1000 ppm which is equivalent to 10 lb/acre (11.20 kg/ha).

[8] = tested on: German cockroaches (Blattella germanica); assay: Persistency against German cockroaches on treated glass plates (Example 74); type: in vivo; settings: 100 mg/ft^2 (1.065 g/m^2), 2nd stage nymphs, 7 day intervals until less than 50% mortality
Protocol: Persistency was measured against German cockroaches (Blattella germanica), or the order Orthoptera, by treating glass plates with acetone solutions of the compunds listed below to produce a deposit equivalent to 100 mg/ft^2 (1.065 g/m^2), and caging 2nd stage nymph cockroaches on these surfaces for 48 hours at 7 day intervals until less than 50% mortality was recorded.

[9] = Acute oral LD50 to mice (Example 76); set-up: species or system mouse (Carshalton CFW strain); settings: in vivo, mouse, by stomach tube in 0.4% tragacanth, up to 5 days
Protocol: (§3) Mammalian toxicity was assessed by measuring the acute oral LD50 to rats and mice. Componds were dissolved or suspended in a 0.4% tragacanth solution and administered by stomach tube to the test animal. The mice used were 10 to 15 g weanlings of the Carshalton CFW strain whilst the rats were 30 to 40 g weanlings of Wystar strain. Three replicates per dosage rate were employed and the mortality was recorded daily for up to 5 days. The LD50 values were calculated as for those for insecticidal and acaricidal activity above.

[10] = tested on: sheep maggot fly (Lucila sericata); assay: Persistency on sheep against sheep maggot fly; type: in vivo; settings: compared with compound 5
Solubility = type: physicochemical; settings: compared with compound 5
rats and mice = assay: Mammalian toxicity (overall comparison); type: in vivo; settings: compared with compound 5
Protocol: as §3

[11] = tested on: adult female houseflies (Musca domestica); assay: Housefly mortality on treated filter papers (Examples 32-40); type: in vivo; settings: 100 milligrams per square foot, after 24 hours
Text: 9 centimeter diameter filter papers treated with aqueous acetone solutions of each of the compounds
at rates equivalent to 100 milligrams per square foot (100 mgm./0.09 m^2.) of active ingredient were placed in 9 centimeter diameter Petri dishes. Batches of adult female houseflies (Musca domestica) lightly anaesthetised with carbon dioxide were then introduced into the dishes and a glass lid placed over each.

[12] = Acute oral LD50 to rats (Example 76); type: in vivo, rat (Wystar strain); settings: in vivo, po; rat male, by stomach tube in 0.4% tragacanth, up to 5 days
Protocol: as §3

rats = assay: Acute oral LD50 to rats (Example 76); type: in vivo, rat (Wystar strain); settings: rat female, by stomach tube in 0.4% tragacanth, up to 5 days
Protocol: as §3

[13] = tested on: second instar larvae of the cabbage white butterfly (Pieris brassicae); assay: Cabbage white butterfly larvae on treated cabbage leaf discs (Examples 41-48); type: in vivo; settings: 10, 5, 1, 0.5 and 0.25 pounds per acre, three replications, after 48 hours
Text: 7 centimeter diameter circular discs of cabbage leaves were painted with 1 milliliter aqueous acetone solutions of each of the following compounds:
in each case at concentrations equivalent to leaf applications of 10, 5, 1, 0.5 and 0.25 pounds per acre (11.2, 5.6, 1.12, 0.56 and 0.28 kg./hectare) of active ingredient. When the deposit on the leaf discs had dried, each leaf disc was placed in a 9 centimeter diameter Petri dish, infested with ten second instar larvae of the cabbage white butterfly (Pieris brassicae) and covered with a glass lid. Three replications were made with each compound at each concentration level.

[14] = tested on: adult apterous vetch aphids (Megoura viciae); assay: Vetch aphids on sprayed field beans (Examples 49 and 50); type: in vivo; settings: 100 parts per million, 50 gallons per acre, 24 hours
Text: Aqueous suspensions containing 100 parts per million of 2,2-dimethyl-1,3-benzodioxol-4-yl N-methylcarbamate and 2,2-dimethyl-1,3-benzodioxol-4-yl N-acetyl-N-methylcarbamate were sprayed at a rate equivalent to 50 gallons per acre (585 liters per hectare) on young field beans (Vicia faba) infested with adult apterous vetch aphids (Megoura viciae). After treatment the plants were enclosed in glass cages with gauze tops for ventilation.

[15] = tested on: yellow fever mosquito (Aedes aegypti); assay: Persistency against yellow fever mosquito on treated glass plates (Example 75); type: in vivo; settings: 100 mg/ft^2 (1.065 g/m^2), adult female mosquitos, 7 day intervals until less than 50% mortality
Protocol: Persistency was measured against yellow fever mosquito (Aedes aegypti), of the order Diptera, by treating glass plates with acetone solutions of the compounds listed below to produce a deposit equivalent to 100 mg/ft^2 (1.065 g/m^2), and caging adult female mosquitos on these surfaces for 24 hours at 7 day intervals until less than 50% mortality was recorded.

SMILES	LC50 value [3]	activity against cockroaches (in words) [3]	LC50 value [4]	activity against houseflies (in words) [4]	LC50 [5] [µg/mL]	activity against sheep maggot fly (in words) [5]	LC50 [6] [µg/mL]	LC50 [7] [µg/mL]	Persistency [8] [days]	LD50 at 120 h [9] [mg/kg]	persistency on sheep against sheep maggot fly (in words) [10]	solubility in organic solvents (in words) (Solubility)	mammalian toxicity (in words) (rats and mice)	mortality of houseflies [11]	other results
CC(=O)N(C)C(=O)Oc1cccc2c1OC(C)(C(C)(C)C)O2 (stereo not shown) [2-methyl-2-t-butyl-1,3-benzodioxol-4-yl N-acetyl-N-methylcarbamate]	–	–	–	–	–	–	–	–	–	–	–	–	–	–	mortality of yellow fever mosquitos [1]: all found to be dead
CNC(=O)Oc1ccc(Cl)c2c1OC(C)(C)O2 [7-chloro-2,2-dimethyl-1,3-benzodioxol-4-yl N-methylcarbamate]	–	–	–	–	–	–	–	–	–	–	–	–	–	–	mortality of cattle tick larvae [2]: all the ticks in the treated filter papers were dead
CCC(=O)N(C)C(=O)Oc1cccc2c1OC(C)(C)O2 [Compound 2, 2,2-dimethyl-1,3-benzodioxol-4-yl N-propionyl-N-methylcarbamate]	6 (<0.5 mg/ft^2 (<5.3 mg/m^2))	outstandingly good activity against cockroaches	5 (3-9 mg/ft^2 (32-106 mg/m^2))	as good or better activity against houseflies than does compound 5	3 to 9 (≈ 10.7 to 32.2 µM)	as active as compound 5 against sheep maggot fly	3 to 9 (≈ 10.7 to 32.2 µM)	300 to 1000 (≈ 1070 to 3580 µM)	21 to 28	280	much better persistency on sheep	higher solubility in organic solvents than is compound 5	lower mammalian toxicity than does compound 5	–	–
CCCC(=O)N(C)C(=O)Oc1cccc2c1OC(C)(C)O2 [Compound 3, 2,2-dimethyl-1,3-benzodioxol-4-yl N-butyryl-N-methylcarbamate]	–	–	4 (10-29 mg/ft^2 (107-310 mg/m^2))	as good or better activity against houseflies than does compound 5	3 to 9 (≈ 10.2 to 30.7 µM)	as active as compound 5 against sheep maggot fly	–	–	–	2000	–	higher solubility in organic solvents than is compound 5	lower mammalian toxicity than does compound 5	all found to be dead	LD50 at 120 h [12]: > 1000 mg/kg; Acute oral LD50, rat female (rats): > 1000 mg/kg body wt.
CCCCC(=O)N(C)C(=O)Oc1cccc2c1OC(C)(C)O2 [Compound 4, 2,2-dimethyl-1,3-benzodioxol-4-yl N-pentanoyl-N-methylcarbamate]	5 (0.15-0.5 mg/ft^2 (1.6-5.3 mg/m^2))	outstandingly good activity against cockroaches	4 (10-29 mg/ft^2 (107-310 mg/m^2))	as good or better activity against houseflies than does compound 5	30 to 99 (≈ 97.6 to 322 µM)	–	30 to 99 (≈ 97.6 to 322 µM)	300 to 1000 (≈ 976 to 3250 µM)	> 35	170	much better persistency on sheep	higher solubility in organic solvents than is compound 5	lower mammalian toxicity than does compound 5	–	–
CC(=O)N(C)C(=O)Oc1cccc2c1OC(C)(C)O2 [Compound 6, 2,2-dimethyl-1,3-benzodioxol-4-yl N-acetyl-N-methylcarbamate]	1 (15-50 mg/ft^2 (160-532 mg/m^2))	low activity against cockroaches	3 (30-99 mg/ft^2 (0.32 - 1.06 g/m^2))	worse	30 to 99 (≈ 113 to 373 µM)	worse	–	100 to 299 (≈ 377 to 1130 µM)	8 to 14	–	–	–	–	all found to be dead	mortality of cabbage white butterfly larvae [13]: all found to be dead; kill of vetch aphids [14]: complete kill of the aphids in 24 hours; Persistency [15]: 15 to 21 days
